For one assay, the target named is T1, KRas^G12R (Homo sapiens, UniProt P01116, G12R).
T1 construct: Biotinylated KRas (corresponding to amino acids 1-169, produced at Accelegan Inc.); biotin (biotinylated); purchased Accelegan Inc
Briefly: KRas binding assay (TR-FRET tracer displacement), KRas G12R. In general terms: TR-FRET usually uses a lanthanide donor and a delayed reading to cut background.

In assay [1] the test system is KRas-mediated phosphorylation of ERK in H727 cells. Briefly: Inhibition of KRas-mediated phosphorylation of ERK (Cisbio HTRF pERK), H727 cells. In kind it is cell-based. To be noted: Homo sapiens; for inhibition at 0.1 µM: NCI-H727, 3 h, single point, 100 nM compound, 3 hrs, H727 cells; for IC50: NCI-H727, H727 cells, HTRF pERK. In a few lines: (§1)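 Phosphorylated ERK was quantified by HTRF using d2-conjugate and Cryptate antibodies added to lysates for 2 hrs at room temperature.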

Assay [2] has as its system KRas-mediated phosphorylation of ERK in A549 cells. Put plainly: Inhibition of KRas-mediated phosphorylation of ERK (Cisbio HTRF pERK), A549 cells. In kind it is cell-based. To be noted: Homo sapiens, A549, 3 h, single point, 100 nM compound, 3 hrs. In short, it runs like this: (§2)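 HTRF readout of phospho-ERK in cell lysates after 3 hrs of compound exposure. Dosing: 10 uM top, 3-fold steps, 10 doses, final DMSO 0.8%. Min control: 0.2 uM Trametinib. Lysis ran 40 mins at 4° C, and antibody detection 2 hrs at room temperature.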

In assay [3] the test system is KRas-mediated phosphorylation of ERK in H460 cells. Put plainly: Inhibition of KRas-mediated phosphorylation of ERK (Cisbio HTRF pERK), H460 cells. To be noted: Homo sapiens, NCI-H460, 3 h, single point, 100 nM compound, 3 hrs. The class given is cell-based. In short, it runs like this:
as §1

For assay [4], the system named is KRas-mediated phosphorylation of ERK in H358 cells. Put plainly: Inhibition of KRas-mediated phosphorylation of ERK (Cisbio HTRF pERK), H358 cells. To be noted: Homo sapiens, NCI-H358, 3 h, single point, 100 nM compound, 3 hrs. The class given is cell-based. In a few lines: as §1
For a further assay, the target named is T2, KRas^G12D (Homo sapiens, UniProt P01116, G12D).
T2 construct: Biotinylated KRas (corresponding to amino acids 1-169, produced at Accelegan Inc.); biotin (biotinylated); purchased Accelegan Inc
Briefly: KRas binding assay (TR-FRET tracer displacement), KRas G12D.

The next assay has as its target T3, KRas^G12V (Homo sapiens, UniProt P01116, G12V).
T3 construct: Biotinylated KRas (corresponding to amino acids 1-169, produced at Accelegan Inc.); biotin (biotinylated); purchased Accelegan Inc
Put plainly: KRas binding assay (TR-FRET tracer displacement), KRas G12V.

For assay [5], the system named is KRas-mediated phosphorylation of ERK in HCT116 cells. Put plainly: Inhibition of KRas-mediated phosphorylation of ERK (Cisbio HTRF pERK), HCT116 cells. To be noted: Homo sapiens, HCT-116, 3 h, single point, 100 nM compound, 3 hrs. The class given is cell-based. In a few lines: as §2
The test system of assay [6] is KRas-mediated phosphorylation of ERK in AsPC-1 cells. Briefly: Inhibition of KRas-mediated phosphorylation of ERK (Cisbio HTRF pERK), AsPC-1 cells. To be noted: Homo sapiens; for inhibition at 0.1 µM: ASPC1, 3 h, single point, 100 nM compound, 3 hrs, AsPC-1 cells; for IC50: ASPC1, AsPC-1 cells, HTRF pERK. The class given is cell-based. In a few lines:
as §1

As usually defined, the IC50 is the concentration that inhibits the measured activity by half. Read a low IC50 as greater potency in that assay. The inhibition is the change of the read-out against control, counted positive when it falls.

T2 sequence (P01116 1-169 isoform P01116-2 G12D): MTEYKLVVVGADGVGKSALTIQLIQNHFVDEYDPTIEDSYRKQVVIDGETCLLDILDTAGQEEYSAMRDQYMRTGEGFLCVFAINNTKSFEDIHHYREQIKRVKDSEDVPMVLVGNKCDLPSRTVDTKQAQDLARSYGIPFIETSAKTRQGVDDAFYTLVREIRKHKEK
T3 sequence (P01116 1-169 isoform P01116-2 G12V): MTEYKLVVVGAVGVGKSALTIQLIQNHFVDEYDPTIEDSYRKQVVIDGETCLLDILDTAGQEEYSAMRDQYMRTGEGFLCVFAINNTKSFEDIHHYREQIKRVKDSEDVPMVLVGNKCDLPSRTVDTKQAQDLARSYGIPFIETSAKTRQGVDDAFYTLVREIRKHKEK
T1 sequence (P01116 1-169 isoform P01116-2 G12R): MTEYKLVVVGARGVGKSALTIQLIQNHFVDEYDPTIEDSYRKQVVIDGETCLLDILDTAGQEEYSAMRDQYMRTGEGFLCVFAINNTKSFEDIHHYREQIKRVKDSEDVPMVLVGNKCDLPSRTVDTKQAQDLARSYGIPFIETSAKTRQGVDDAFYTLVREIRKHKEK

As to `CCc1c(F)ccc2cc(O)cc(-c3ncc4c(NCc5cc(C(=O)N(C)C)nn5CC#N)nc(OC[C@@]56CCCN5C[C@H](F)C6)nc4c3F)c12` [Example 657, 1-(cyanomethyl)-5-(((7-(8-ethyl-7-fluoro-3-hydroxynaphthalen-1-yl)-8-fluoro-2-(((2R,7aS)-2-fluorotetrahydro-1H-pyrrolizin-7a(5H)-yl)methoxy)pyrido[4,3-d]pyrimidin-4-yl)amino)methyl)-N,N-dimethyl-1H-pyrazole-3-carboxamide], the IC50 is less than 2 nM at KRas^G12R, 2660 nM in assay [1], 4 nM on KRas^G12D and less than 2 nM at KRas^G12V. In addition, the inhibition at 0.1 µM in [1] was 19%; in assay [2], -2%; in [3], -18%; in assay [4], 27%; in assay [5], -9%; in assay [6], -24%.

As for `CCc1c(F)ccc2cc(O)cc(-c3ncc4c(N5CCCn6nc(S(=O)(=O)NC)cc6C5)nc(OC[C@@]56CCCN5C[C@H](F)C6)nc4c3F)c12` [Example 676, 5-(7-(8-ethyl-7-fluoro-3-hydroxynaphthalen-1-yl)-8-fluoro-2-(((2R,7aS)-2-fluorohexahydro-1H-pyrrolizin-7a-yl)methoxy)pyrido[4,3-d]pyrimidin-4-yl)-N-methyl-5,6,7,8-tetrahydro-4H-pyrazolo[1,5-a][1,4]diazepine-2-sulfonamide], the IC50 turned out to be 5 nM on KRas^G12R; 5130 nM in assay [1]; 2 nM at KRas^G12D; 6 nM at KRas^G12V; 996 nM in assay [6]. The inhibition at 0.1 µM is 19% in assay [2], 11% in [3], -4% in [4] and 4% in [5].

For `CCc1c(F)ccc2cc(O)cc(-c3ncc4c(N5CCC[C@@](C)(O)C5)nc(OCC56CNCC5C6)nc4c3F)c12` (stereo partly drawn) [Example 695, (3R)-1-(2-((3-azabicyclo[3.1.0]hexan-1-yl)methoxy)-7-(8-ethyl-7-fluoro-3-hydroxynaphthalen-1-yl)-8-fluoropyrido[4,3-d]pyrimidin-4-yl)-3-methylpiperidin-3-ol], the IC50 at KRas^G12R was found to be 8 nM; in assay [1], 2690 nM; at KRas^G12D, 4 nM; at KRas^G12V it was 5 nM; in assay [6] it was 1110 nM. Also, the inhibition at 0.1 µM in assay [2] is 16%; in assay [3] it was -2%; in assay [4], -1%; in assay [5], 13%.

As to `CCc1c(F)ccc2cc(O)cc(-c3ncc4c(N5CCC[C@@](C)(O)C5)nc(OCC56CNCCC5C6)nc4c3F)c12` (stereo partly drawn) [Example 697, (3R)-1-(2-((3-azabicyclo[4.1.0]heptan-1-yl)methoxy)-7-(8-ethyl-7-fluoro-3-hydroxynaphthalen-1-yl)-8-fluoropyrido[4,3-d]pyrimidin-4-yl)-3-methylpiperidin-3-ol], the IC50 turned out to be 7 nM at KRas^G12R; 4750 nM in [1]; 4 nM on KRas^G12D; 6 nM at KRas^G12V; 1860 nM in assay [6]. The inhibition at 0.1 µM in assay [2] was -4%; in assay [3], 19%; in assay [4] it was 5%; in assay [5], 1%.

Consider `CCc1c(F)ccc2cc(O)cc(-c3ncc4c(N5CCC[C@@](C)(O)C5)nc(OCC56CC5CCN(C)C6)nc4c3F)c12` (stereo partly drawn) [Example 701, (3R)-1-(7-(8-ethyl-7-fluoro-3-hydroxynaphthalen-1-yl)-8-fluoro-2-((3-methyl-3-azabicyclo[4.1.0]heptan-1-yl)methoxy)pyrido[4,3-d]pyrimidin-4-yl)-3-methylpiperidin-3-ol], for which the half-inhibitory concentration (IC50) on KRas^G12R came out at 9 nM; in [1], 476 nM; at KRas^G12D, 4 nM; at KRas^G12V, 5 nM; in [6] it was 101 nM. In addition, the inhibition at 0.1 µM was 20% in assay [2], 15% in assay [3], 6% in assay [4] and 0% in assay [5].

`CCc1c(F)ccc2cc(O)cc(-c3ncc4c(N5CCC[C@@](C)(O)C5)nc(OCC5(CN(C)C)CC5CC)nc4c3F)c12` (stereo partly drawn) [Example 703, (3R)-1-(2-((1-((dimethylamino)methyl)-2-ethylcyclopropyl)methoxy)-7-(8-ethyl-7-fluoro-3-hydroxynaphthalen-1-yl)-8-fluoropyrido[4,3-d]pyrimidin-4-yl)-3-methylpiperidin-3-ol]: the half-maximal inhibitory concentration (IC50) on KRas^G12R was found to be 14 nM; in assay [1], 982 nM; on KRas^G12D, 5 nM; on KRas^G12V, 7 nM; in assay [6], 342 nM. The inhibition at 0.1 µM is 47% in assay [2], 4% in assay [3], -10% in assay [4] and 0% in assay [5].

Take `CCc1c(F)ccc2cc(O)cc(-c3ncc4c(N5CCC[C@@](C)(O)C5)nc(OCC5(CN(C)C)CC5(C)C)nc4c3F)c12` (stereo partly drawn) [Example 704, (3R)-1-(2-((1-((dimethylamino)methyl)-2,2-dimethylcyclopropyl)methoxy)-7-(8-ethyl-7-fluoro-3-hydroxynaphthalen-1-yl)-8-fluoropyrido[4,3-d]pyrimidin-4-yl)-3-methylpiperidin-3-ol]: the half-inhibitory concentration (IC50) at KRas^G12R stood at 11 nM; in assay [1], 223 nM; at KRas^G12D, 5 nM; on KRas^G12V, 5 nM; in [6], 53 nM. Besides, the inhibition at 0.1 µM in assay [1] came to 21%; in assay [2], 26%; in [3], 40%; in assay [4] it was 47%; in assay [5], 19%; in assay [6], 25%.

Regarding `CCc1c(F)ccc2cc(O)cc(-c3ncc4c(N5CCC[C@@](C)(O)C5)nc(OCC5(CN(C)C)CC56CCC6)nc4c3F)c12` (stereo partly drawn) [Example 705, (3R)-1-[2-[[2-[(dimethylamino)methyl]spiro[2.3]hexan-2-yl]methoxy]-7-(8-ethyl-7-fluoro-3-hydroxy-1-naphthyl)-8-fluoro-pyrido[4,3-d]pyrimidin-4-yl]-3-methyl-piperidin-3-ol], the concentration for half-maximal inhibition (IC50) was determined as 30 nM on KRas^G12R; 1220 nM in assay [1]; 12 nM on KRas^G12D; 13 nM on KRas^G12V; 598 nM in [6]. Besides, the inhibition at 0.1 µM was 3% in assay [1]; 29% in assay [2]; 0% in [3]; 34% in [4]; -3% in assay [5]; 6% in [6].

On to `CCc1c(F)ccc2c(F)c(O)cc(-c3ncc4c(N5C[C@@H]6C[C@H](C5)[C@H](O)C6)nc(OC[C@@]56CCCN5C[C@H](F)C6)nc4c3F)c12` [Example 778, (1R,5R,6R)-3-(7-(8-ethyl-4,7-difluoro-3-hydroxynaphthalen-1-yl)-8-fluoro-2-(((2R,7aS)-2-fluorohexahydro-1H-pyrrolizin-7a-yl)methoxy)pyrido[4,3-d]pyrimidin-4-yl)-3-azabicyclo[3.2.1]octan-6-ol], for which the concentration for half-maximal inhibition (IC50) at KRas^G12R is 4 nM; in [1] it was 45 nM; at KRas^G12D it was 6 nM; on KRas^G12V, less than 2 nM; in [6] it was 84 nM. Besides, the inhibition at 0.1 µM in [1] was found to be 36%; in [2], 69%; in assay [3], 74%; in assay [4], 64%; in [5], 49%; in assay [6], 16%.

For the compound `CCc1c(F)ccc2cc(O)cc(-c3ncc4c(N5Cc6n[nH]c(CO)c6C5)nc(OC[C@@]56CCCN5C[C@H](F)C6)nc4c3F)c12` [Example 785, 5-ethyl-6-fluoro-4-(8-fluoro-2-(((2R,7aS)-2-fluorohexahydro-1H-pyrrolizin-7a-yl)methoxy)-4-(3-(hydroxymethyl)pyrrolo[3,4-c]pyrazol-5 (2H,4H,6H)-yl)pyrido[4,3-d]pyrimidin-7-yl)naphthalen-2-ol], the concentration for half-maximal inhibition (IC50) at KRas^G12R was 787 nM; in assay [1], more than 10000 nM; on KRas^G12D, 1300 nM; on KRas^G12V, 435 nM. In addition, the inhibition at 0.1 µM in assay [1] was 2%; in assay [2], 8%; in assay [3], 0%; in assay [4] it was 9%; in [5] it was 5%; in assay [6], -6%.

The values above are taken from patent publication US20260015350A1, “AZAQUINAZOLINE PAN-KRAS INHIBITORS” (Mirati Therapeutics, Inc., priority 2022, published 2026).
